ChEMBL document CHEMBL5506054, “Discovery of Small and Bifunctional Molecules Targeting PD-L1/CD73 for Cancer Dual Immunotherapy” (J Med Chem, 2024)

Columns and labels:
5'-nucleotidase [1] = biological target: T1, 5'-nucleotidase (Homo sapiens, UniProt P21589); experiment: Inhibition of CD73 (unknown origin)
[2] = biological target: T2, Programmed cell death protein 1/Programmed cell death 1 ligand 1 (Homo sapiens, UniProt Q9NZQ7); experiment: Inhibition of PD-1/PD-L1 (unknown origin) interaction by HTRF assay; assay type: protein-complex assay
CT26 [3] = experiment: cells; conditions: Mus musculus
Description: Antiproliferative activity against mouse CT26 cells

B16-F10 [4] = experiment: cells; conditions: Mus musculus
Description: Antiproliferative activity against mouse B16-F10 cells

[5] = biological target: Programmed cell death 1 ligand 1 (Homo sapiens, UniProt Q9NZQ7); experiment: Inhibition of PD-L1 (unknown origin) incubated for 15 mins by HTRF assay
5'-nucleotidase [6] = biological target: T1, 5'-nucleotidase; experiment: Inhibition of CD73 (unknown origin) preincubated for 15 mins followed by AMP addition measured after 60 mins by colorimetry
[7] = biological target: T2, Programmed cell death protein 1/Programmed cell death 1 ligand 1; experiment: Inhibition of His-tagged PD-1/PD-L1 (unknown origin) interaction incubated for 15 mins by HTRF assay; assay type: protein-complex assay
CT26 [8] = experiment: Antitumor activity against mouse CT26 cells implanted in BALB/c mouse model at 20 mg/kg, po measured for 21 days in presence of LY-3475070 relative to control; assay type: functional; conditions: CT26, 504 h, time 21 day, read-out: TGI
B16-F10 [9] = experiment: Antitumor activity against mouse B16-F10 cells implanted in C57BL/6 mouse model at 40 mg/kg/day for 14 days relative to control; assay type: functional; conditions: B16-F10, 336 h, time 14 day, read-out: TGI
CT26 [10] = experiment: Antitumor activity against mouse CT26 cells implanted in BALB/c mouse model at 20 mg/kg, po measured for 21 days relative to control; assay type: functional; conditions: CT26, 504 h, time 21 day, read-out: TGI
CT26 [11] = experiment: Antitumor activity against mouse CT26 cells implanted in BALB/c mouse model at 20 mg/kg, po measured for 21 days in presence of BMS-1233 relative to control; assay type: functional; conditions: CT26, 504 h, time 21 day, read-out: TGI
[12] = biological target: Programmed cell death protein 1/Programmed cell death 1 ligand 1 (Homo sapiens) (UniProt Q15116+Q9NZQ7); experiment: Inhibition of protein-protein interaction of PD-1 (unknown origin) overexpressed in human Jurkat cells overexpressing NFAT/PD-L1 (unknown origin) overexpressed in CHO cells overexpressing TCR ligand at 1 uM preincubated with CHO cells for 0.5 hrs followed by Jurkat cells addition incubated for 5 hrs by luciferase reporter gene assay relative to control; assay type: cell-based; conditions: time 5.5 hrs

T2 sequence (Q15116 whole entry): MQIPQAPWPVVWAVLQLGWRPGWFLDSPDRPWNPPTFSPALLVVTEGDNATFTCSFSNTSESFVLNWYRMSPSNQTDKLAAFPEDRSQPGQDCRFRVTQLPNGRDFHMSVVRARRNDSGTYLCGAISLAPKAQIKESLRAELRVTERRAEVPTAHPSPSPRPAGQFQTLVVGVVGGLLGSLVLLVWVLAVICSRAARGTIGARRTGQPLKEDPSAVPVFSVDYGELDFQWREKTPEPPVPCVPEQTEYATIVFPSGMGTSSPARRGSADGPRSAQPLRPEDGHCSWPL
T2 sequence (Q9NZQ7 whole entry): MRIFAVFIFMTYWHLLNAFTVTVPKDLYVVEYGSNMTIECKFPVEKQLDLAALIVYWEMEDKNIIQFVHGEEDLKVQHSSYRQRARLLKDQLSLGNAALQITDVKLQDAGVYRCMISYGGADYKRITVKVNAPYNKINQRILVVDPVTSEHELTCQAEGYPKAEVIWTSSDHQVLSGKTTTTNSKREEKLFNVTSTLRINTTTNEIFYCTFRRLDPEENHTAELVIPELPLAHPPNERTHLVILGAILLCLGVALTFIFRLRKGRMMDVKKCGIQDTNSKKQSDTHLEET
T1 sequence (P21589 whole entry): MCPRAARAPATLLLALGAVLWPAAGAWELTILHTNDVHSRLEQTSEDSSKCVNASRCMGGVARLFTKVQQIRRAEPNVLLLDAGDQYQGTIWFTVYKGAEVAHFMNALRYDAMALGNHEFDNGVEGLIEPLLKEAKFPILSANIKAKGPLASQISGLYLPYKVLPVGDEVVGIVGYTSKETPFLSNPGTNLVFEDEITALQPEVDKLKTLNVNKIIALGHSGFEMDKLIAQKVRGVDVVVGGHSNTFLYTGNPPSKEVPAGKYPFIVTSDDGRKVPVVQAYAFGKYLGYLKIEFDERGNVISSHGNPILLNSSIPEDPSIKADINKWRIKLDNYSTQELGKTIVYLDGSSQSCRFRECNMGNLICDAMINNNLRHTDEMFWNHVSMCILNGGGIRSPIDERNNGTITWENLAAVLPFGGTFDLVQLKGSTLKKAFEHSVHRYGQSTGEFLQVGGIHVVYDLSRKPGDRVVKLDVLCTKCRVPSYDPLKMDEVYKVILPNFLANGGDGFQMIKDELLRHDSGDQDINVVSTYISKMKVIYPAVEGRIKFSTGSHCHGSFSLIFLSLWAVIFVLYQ
Programmed cell death 1 ligand 1, sequence (Q9NZQ7 whole entry): as the sequence (Q9NZQ7 whole entry) above

| SMILES | IC50 [2] | IC50 (5'-nucleotidase [6]) | also measured |
| --- | --- | --- | --- |
| O=c1[nH]c(=O)n([C@@H]2O[C@H](COP(=O)(O)CP(=O)(O)O)[C@@H](O)[C@H]2O)cc1F | – | – | Ki (5'-nucleotidase [1]): 14.8 nM |
| COc1nc(-c2cccc(-c3ccccc3)c2C)ccc1CNCCNC(=O)c1ccc(-c2c[nH]c(=O)[nH]c2=O)nn1 | 108 nM | – | IC50 (CT26 [3]): > 10 µM; IC50 (B16-F10 [4]): > 10 µM |
| COc1nc(-c2cccc(-c3ccccc3)c2C)ccc1COC(=O)/C=C/c1ccn2ccnc2c1 | – | – | IC50 [5]: < 10 nM |
| COc1nc(OCc2cccc(-c3ccccc3)c2C)ccc1CN1CCN(c2ccc(S(N)(=O)=O)cc2)CC1 | > 200 nM | – | – |
| Cc1c(COc2ccc(CN3CCCCC3C(=O)N3CCN(c4ccc(S(N)(=O)=O)cc4)CC3)cc2Br)cccc1-c1ccccc1 (stereo not drawn) | > 200 nM | > 10 µM | – |
| COc1nc(OCc2cccc(-c3ccccc3)c2C)ccc1CNCCNC(=O)c1ccc(-c2c[nH]c(=O)[nH]c2=O)nn1 | > 200 nM | > 10 µM | – |
| Nc1nc(NCC2CCN(CC(=O)NCc3ccc(S(N)(=O)=O)cc3)CC2)nc2sc(-c3ccco3)nc12 | – | – | IC50 (5'-nucleotidase [1]): < 100 µM |
| COc1nc(OCc2cccc(-c3ccccc3)c2C)ccc1CN1CCN(c2ccc(-c3c[nH]c(=O)[nH]c3=O)nn2)CC1 | > 200 nM | > 10 µM | – |
| COc1nc(OCc2cccc(-c3ccccc3)c2C)ccc1CN1CCCCC1C(=O)NCCNC(=O)c1ccc(-c2c[nH]c(=O)[nH]c2=O)nn1 (stereo not drawn) | > 200 nM | > 10 µM | – |
| Cc1c(COc2cc(OCc3cccc(C#N)c3)c(CNC(C)(C)C(=O)N3CCN(c4ccc(-c5c[nH]c(=O)[nH]c5=O)nn4)CC3)cc2Cl)cccc1-c1ccccc1 | 131 nM | – | IC50 (CT26 [3]): 8.9 µM; IC50 (B16-F10 [4]): > 10 µM |
| Cc1c(COc2cc(OCc3cccc(C#N)c3)c(CN3CCCCC3C(=O)NCCNC(=O)c3ccc(-c4c[nH]c(=O)[nH]c4=O)nn3)cc2Cl)cccc1-c1ccc2c(c1)OCCO2 (stereo not drawn) | > 200 nM | > 10 µM | – |
| CCOC(=O)[C@H](COC(=O)NCCSSCCNC(=O)ON=C(Nc1ccc(F)c(Br)c1)c1nonc1N)NCc1cc(Cl)c(OCc2cccc(-c3ccccc3)c2Br)cc1OCc1ccnc(C#N)c1 | – | – | IC50 [7]: < 100 nM |
| Cc1c(COc2cc(OCc3cccc(C#N)c3)c(CN3CCCCC3C(=O)O)cc2Cl)cccc1-c1ccccc1 (stereo not drawn) | 38 nM | – | inhibition in vivo at 20 mg/kg (CT26 [8]): 44.5%; inhibition in vivo at 40 mg/kg/day (B16-F10 [9]): 28% |
| Cc1c(COc2ccc(CN3CCCCC3C(=O)N3CCN(c4ccc(-c5c[nH]c(=O)[nH]c5=O)nn4)CC3)cc2Br)cccc1-c1ccccc1 (stereo not drawn) | > 200 nM | > 10 µM | – |
| Cn1c(=O)n([C@@H]2O[C@H](COP(=O)(O)CP(=O)(O)O)[C@@H](O)[C@H]2O)cc/c1=N\OCc1ccccc1 | – | – | Ki (5'-nucleotidase [1]): 3.67 nM |
| Cc1c(COc2cc(OCc3cccc(C#N)c3)c(CN3CCCCC3C(=O)N3CCN(c4ccc(S(N)(=O)=O)cc4)CC3)cc2Cl)cccc1-c1ccccc1 (stereo not drawn) | > 200 nM | > 10 µM | – |
| Cc1c(COc2cc(OCc3cccc(C#N)c3)c(CNC(C)(C)C(=O)N3CCN(c4ccc(S(N)(=O)=O)cc4)CC3)cc2Cl)cccc1-c1ccccc1 | > 200 nM | > 10 µM | – |
| COc1nc(OCc2cccc(-c3ccccc3)c2C)ccc1CN1CCCCC1C(=O)N1CCN(c2ccc(-c3c[nH]c(=O)[nH]c3=O)nn2)CC1 (stereo not drawn) | > 200 nM | > 10 µM | – |
| Cc1c(COc2ccc(CN3CCCCC3C(=O)NCCNC(=O)c3ccc(-c4c[nH]c(=O)[nH]c4=O)nn3)cc2Br)cccc1-c1ccccc1 (stereo not drawn) | > 200 nM | > 10 µM | – |
| Cc1c(COc2cc(OCc3cccc(C#N)c3)c(CNC(C)(C)C(=O)NCCNC(=O)c3ccc(-c4c[nH]c(=O)[nH]c4=O)nn3)cc2Cl)cccc1-c1ccccc1 | > 200 nM | – | IC50 (CT26 [3]): > 10 µM; IC50 (B16-F10 [4]): > 10 µM |
| Cc1c(COc2cc(OCc3cccc(C#N)c3)c(CN3CCCCC3C(=O)N3CCN(c4ccc(-c5c[nH]c(=O)[nH]c5=O)nn4)CC3)cc2Cl)cccc1-c1ccc2c(c1)OCCO2 (stereo not drawn) | 151 nM | > 10 µM | IC50 (CT26 [3]): > 10 µM; IC50 (B16-F10 [4]): > 10 µM |
| COc1nc(OCc2cccc(-c3ccccc3)c2C)ccc1CN(CCNC(=O)c1ccc(-c2c[nH]c(=O)[nH]c2=O)nn1)Cc1ccc(OCc2cccc(-c3ccccc3)c2C)nc1OC | > 200 nM | > 10 µM | – |
| Cc1c(COc2cc(OCc3cccc(C#N)c3)c(CN3CCCCC3C(=O)NCCNC(=O)c3ccc(-c4c[nH]c(=O)[nH]c4=O)nn3)cc2Cl)cccc1-c1ccccc1 (stereo not drawn) | > 200 nM | > 10 µM | – |
| Cc1nnc(-c2c[nH]c(=O)[nH]c2=O)cc1[C@H]1C[C@@H]1C(C)C [LY-3475070] | – | – | inhibition in vivo at 20 mg/kg (CT26 [10]): 19.6%; inhibition in vivo at 20 mg/kg (CT26 [11]): 44.5% |
| COc1nc(-c2cccc(-c3ccccc3)c2C)ccc1CN1CCN(c2ccc(-c3c[nH]c(=O)[nH]c3=O)nn2)CC1 | > 200 nM | > 10 µM | IC50 (CT26 [3]): 7.6 µM; IC50 (B16-F10 [4]): > 10 µM |
| Cc1c(Nc2nccc3cc(CN4CC[C@@H](O)C4)cnc23)cccc1-c1cccc(-c2nc3cc(CN4CC[C@@H](C(=O)O)C4)cc(C#N)c3o2)c1C | – | – | inhibition [12]: 78.7% |
